Data from patent publication US20260335306A1, “DOSAGE REGIMENS OF ESTROGEN RECEPTOR DEGRADERS” (priority 2022, published 2026).
Like-named read-outs stand apart in the source and are kept apart here.

What was measured:
[1] = test system: MCF7 cells; experiment: Live-cell imaging proliferation assay (Incucyte), MCF7; assay type: cell-based; conditions: for GI50: Homo sapiens, MCF7, 120 h, read-out: approximate GI50; for mean decrease in MCF7 cell growth relative to control: 5 days, Compound A 10 nM
Excerpt: (§1) FIGS. 1A-1H are graphs showing quantification of the MCF7 and T47D live-cell imaging proliferation assays. […] Each plot is representative of three independent experiments. […] Each plot is representative of three independent experiments, except for the T47D fulvestrant arms in FIGS. 1A and 1C, which are the result of 2 independent experiments). FIGS. 1B, 1D, 1F and 1H show differences in relative MCF7 and T47D cell growth compared to vehicle control at 120-hours of treatment. Graphs show the mean of three independent experiments, except for the T47D fulvestrant arms in FIGS. 1B and 1D, which are the result of 2 independent experiments). Error bars=standard error of the mean (SEM). *p<0.025, **p≤0.008, ***p≤0.0006, ****p<0.0001, ns=not significant (one-way ANOVA test).
(§2) MCF7 or T47D cells were seeded in 6 well plates and treated with the indicated concentrations of compounds. The plate was then placed in the Incucyte® S3 Live-Cell Analysis System and images were acquired every 4 hours for a total of 5 days. Data were analyzed using the Incucyte® Software v2020C which quantified cell surface area coverage as confluence values. Relative growth was calculated for all timepoints for all growth conditions relative to the confluence value observed for the control at 120 hours (FIGS. 1A and 1C). Graphing and statistical analyses were performed using Graphpad Prism (GraphPad Software).
(§3) For fulvestrant and fulvestrant plus abemaciclib, mean decreases in MCF7 cell growth were 48% and 68%, respectively.

[2] = Clinical Pharmacology Study: safety in healthy volunteers; conditions: 200 mg, 47 healthy participants
[3] = Interconversion of Compound A to Compound B; assay type: physicochemical
[4] = human, in vivo
[5] = test system: T47D cells; experiment: Live-cell imaging proliferation assay (Incucyte), T47D; assay type: cell-based; conditions: Homo sapiens, 120 h; for GI50: read-out: approximate GI50
Excerpt: as §1, §2, §3

[6] = test system: MCF7 xenograft; experiment: MCF7 xenograft model, palbociclib study; assay type: in vivo, NOD/SCID mice; conditions: 28 days; Compound A 30 mg/kg PO QD, fulvestrant 200 mg/kg SC, palbociclib 60 mg/kg PO QD; FIG. 5
Method: Female severe combined immunodeficient mouse in non-obese background (NOD/scid) mice were implanted with MCF7 cells and compound administration was initiated once the tumors reached 200 mm^3. Tumor volumes were evaluated twice per week for 28 days. […] Data are presented as mean±standard error of the mean (SEM)
(§4) Briefly, MCF7 cells were orthotopically implanted into the mammary fat pads of NOD/SCID female mice. 17β-estradiol 0.72 mg 90-day pellet (Innovative Research of America) were implanted 2-3 days prior to MCF7 cell implant. […] Compound A- and/or combination partner-treated mice were dosed orally once daily. Fulvestrant-treated mice were dosed subcutaneously twice per week for 2 weeks followed by once weekly for 2 weeks.
(§5) Vehicle for abemaciclib was 1% […] (HEC) in 20 mM HCl pH2. Vehicle for ribociclib was 0.5% methylcellulose. Vehicle for fulvestrant was 10% w/v ethanol, 10% w/v benzyl alcohol, 15% w/v benzyl benzoate, made up to 100% w/v with castor oil. […] Tumor volumes were measured twice per week in efficacy studies and calculated using (width^2×length)/2, where all measurements are in millimeters (mm) and the tumor volume is in mm^3. Body weights were recorded twice per week. […] Tumor growth inhibition (TGI) was calculated as follows, where tumor volume is in mm^3: […]

[7] = Biopharmaceutics Classification System classification; assay type: physicochemical
[8] = target: T1, ER (Homo sapiens, UniProt P03372); experiment: ER degradation
T1 construct: degradation by PROTAC
T1 sequence (P03372 1-595): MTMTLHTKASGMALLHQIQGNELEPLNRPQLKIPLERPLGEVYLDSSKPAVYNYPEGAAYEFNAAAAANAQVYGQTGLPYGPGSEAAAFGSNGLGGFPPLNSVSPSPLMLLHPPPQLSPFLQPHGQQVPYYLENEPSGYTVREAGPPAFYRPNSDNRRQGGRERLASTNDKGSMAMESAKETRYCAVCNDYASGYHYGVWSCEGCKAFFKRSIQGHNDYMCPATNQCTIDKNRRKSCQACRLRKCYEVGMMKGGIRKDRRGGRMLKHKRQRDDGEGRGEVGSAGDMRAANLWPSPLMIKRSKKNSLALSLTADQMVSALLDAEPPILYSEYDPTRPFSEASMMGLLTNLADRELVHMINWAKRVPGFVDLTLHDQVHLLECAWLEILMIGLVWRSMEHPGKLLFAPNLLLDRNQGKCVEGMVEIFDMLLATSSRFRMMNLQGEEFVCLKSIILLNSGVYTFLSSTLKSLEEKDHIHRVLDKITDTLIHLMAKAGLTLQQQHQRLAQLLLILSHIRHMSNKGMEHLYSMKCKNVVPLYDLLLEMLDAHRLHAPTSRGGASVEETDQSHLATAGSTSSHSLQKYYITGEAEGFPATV

[9] = FIH Study Part C: pharmacokinetics in patients with breast cancer; assay type: in vivo, human; conditions: preliminary
Method: Additional evaluation will include single- and multiple-dose pharmacokinetics and biochemical activity.
Palbociclib was administered orally once a day at 125 mg/day for 21 days followed by 7 days off treatment for each 28-day cycle according to product labeling and in compliance with its local prescribing information.
Anticancer Drugs. 2018 March; 29 (3): 271280).

[10] = Exposure of Compound B relative to Compound A (preclinical data)
[11] = test system: MCF7 orthotopic xenograft; experiment: MCF7 orthotopic xenograft model, abemaciclib study; assay type: in vivo, NOD/SCID mice; conditions: 28 days; Compound A 30 mg/kg, abemaciclib 30 mg/kg orally QD, fulvestrant 200 mg/kg SC; FIG. 3A
Method: Briefly, MCF7 cells were orthotopically implanted into the mammary fat pads of NOD/SCID female mice. 17β-estradiol 0.72 mg 90-day pellet (Innovative Research of America) were implanted 2-3 days prior to MCF7 cell implant. […] Fulvestrant-treated mice were dosed subcutaneously twice per week for 2 weeks followed by once weekly for 2 weeks.
Eight- to ten-week-old female NOD/SCID mice were surgically implanted with a 0.36 mg 90-day release 17β-estradiol pellet subcutaneously. One to two days later each mouse was injected with 5×10^6/200 μL MCF7 cells into one mammary fat pad. […] Fulvestrant (200 mg/kg, subcutaneously; twice per week for 2 weeks followed by once-weekly for 2 weeks) was also evaluated as a single agent and in combination with abemaciclib and ribociclib. […]
Vehicle for abemaciclib was 1% hydroxymethyl cellulose (HEC) in 20 mM HCl pH2. […] Tumor volumes were measured twice per week in efficacy studies and calculated using (width^2×length)/2, where all measurements are in millimeters (mm) and the tumor volume is in mm^3. Body weights were recorded twice per week. […] Tumor growth inhibition (TGI) was calculated as follows, where tumor volume is in mm^3:

[12] = test system: MCF7 orthotopic xenograft; experiment: MCF7 orthotopic xenograft model, ribociclib study; assay type: in vivo, NOD/SCID mice; conditions: 28 days; Compound A 30 mg/kg, ribociclib 75 mg/kg orally QD, fulvestrant 200 mg/kg SC; FIG. 3B
Method: Mean tumor volumes are reported ±SEM. Single-day dosing holidays are indicated by small black arrows.
Compounds dosed as single agents or in combination, 10 mice/arm.
as §4
Eight- to ten-week-old female NOD/SCID mice were surgically implanted with a 0.36 mg 90-day release 17β-estradiol pellet subcutaneously. […] Fulvestrant (200 mg/kg, subcutaneously; twice per week for 2 weeks followed by once-weekly for 2 weeks) was also evaluated as a single agent and in combination with abemaciclib and ribociclib. […]
as §5, with “pH2.” for “pH2. Vehicle for ribociclib was 0.5% methylcellulose. Vehicle for fulvestrant was 10% w/v ethanol, 10% w/v benzyl alcohol, 15% w/v benzyl benzoate, made up to 100% w/v with castor oil.”

[13] = read-out: mean change in T47D cell growth relative to control
[14] = read-out: mean decrease in T47D cell growth relative to control
[15] = with palbociclib, 180 up to 500 mg QD Compound A, Cycle 1 Day 1 and Day 15
[16] = abemaciclib experiment, fulvestrant 1 nM, abemaciclib 40 nM (approx. GI50)

O=C1CC[C@H](N2Cc3cc(N4CCN(CC5CCN(c6ccc([C@@H]7c8ccc(O)cc8CC[C@@H]7c7ccccc7)cc6)CC5)CC4)ccc3C2=O)C(=O)N1 [Compound A, (S)-3-(5-(4-((1-(4-((1R,2S)-6-hydroxy-2-phenyl-1,2,3,4-tetrahydronaphthalen-1-yl)phenyl)piperidin-4-yl)methyl)piperazin-1-yl)-1-oxoisoindolin-2-yl)piperidine-2,6-dione]
GI50 [1]: ~10 nM | TRAEs of Grade 2 or higher [2]: no TRAEs of Grade 2 or higher were reported | tolerability [2]: well-tolerated | interconversion to Compound B [3]: can interconvert | SAEs, SARs or deaths [4]: No SAEs, SARs or deaths were reported | GI50 [5]: ~10 nM | inhibition at 0.01 µM [5, 13]: 41% | inhibition at 0.01 µM [5, 14]: 42% | tumor growth inhibition (TGI) [6]: 105% | Biopharmaceutics Classification System Class [7]: Class IV | permeability (BCS) [7]: low permeability | solubility (BCS) [7]: low solubility

O=C1CC[C@@H](N2Cc3cc(N4CCN(CC5CCN(c6ccc([C@@H]7c8ccc(O)cc8OC[C@@H]7c7ccccc7)cc6)CC5)CC4)ccc3C2=O)C(=O)N1 [Compound B]
degradation of the ER [8]: does not degrade the ER | AUCtau, dose dependence [9, 15]: dose-dependent increases | Cmax, dose dependence [9, 15]: dose-dependent increases | exposure of Compound B compared to Compound A [10]: < 26%

CCN1CCN(Cc2ccc(Nc3ncc(F)c(-c4cc(F)c5nc(C)n(C(C)C)c5c4)n3)nc2)CC1 [abemaciclib, N-(5-((4-ethylpiperazin-1-yl)methyl)pyridin-2-yl)-5-fluoro-4-(4-fluoro-1-isopropyl-2-methyl-1H-benzo[d]imidazol-6-yl)pyrimidin-2-amine]
tumor growth inhibition (TGI) [11]: 50% | GI50 [1]: ~40 nM | mean decrease in MCF7 cell growth relative to control [1, 16]: 49% | GI50 [5]: ~40 nM | inhibition at 0.04 µM [5, 14]: 32%

C[C@]12CC[C@@H]3c4ccc(O)cc4C[C@@H](CCCCCCCCC[S+]([O-])CCCC(F)(F)C(F)(F)F)[C@H]3[C@@H]1CC[C@@H]2O (stereo partly shown) [fulvestrant]
tumor growth inhibition (TGI) [11]: 42% | GI50 [1]: ~1 nM | mean decrease in MCF7 cell growth relative to control [1, 16]: 48% | GI50 [5]: ~1 nM | inhibition at 0.001 µM [5, 14]: 16% | tumor growth inhibition (TGI) [12]: 31% | tumor growth inhibition (TGI) [6]: 46%

CC(=O)c1c(C)c2cnc(Nc3ccc(N4CCNCC4)cn3)nc2n(C2CCCC2)c1=O [palbociclib, 6-acetyl-8-cyclopentyl-5-methyl-2-(5-piperazin-1-yl-pyridin-2-ylamino)-8H-pyrido[2,3-d]pyrimidin-7-one]
increase in palbociclib AUCtau vs PALOMA-1 and PALOMA-2 ([9]; Cycle 1 Day 15, 125 mg QD palbociclib with 500 mg QD Compound A): ~34%

CN(C)C(=O)c1cc2cnc(Nc3ccc(N4CCNCC4)cn3)nc2n1C1CCCC1 [ribociclib, 7-cyclopentyl-N,N-dimethyl-2-[(5-piperazin-1-ylpyridin-2-yl)amino]pyrrolo[2,3-d]pyrimidine-6-carboxamide]
GI50 [1]: ~40 nM | mean decrease in MCF7 cell growth relative to control ([1]; ribociclib experiment, ribociclib 40 nM (approx. GI50)): 44% | GI50 [5]: ~40 nM | inhibition at 0.04 µM [5, 13]: 32% | tumor growth inhibition (TGI) [12]: 58%
